Experimental data published in patent US8912176B2 (Evotec AG, priority 2009, dated 2014).

Target: human H3 receptor (Homo sapiens, UniProt Q9Y5N1)
Test: cAMP quantification assay for human H3 receptor (DiscoveRx cAMP XS+)

Sequence of human H3 receptor (Q9Y5N1 whole entry): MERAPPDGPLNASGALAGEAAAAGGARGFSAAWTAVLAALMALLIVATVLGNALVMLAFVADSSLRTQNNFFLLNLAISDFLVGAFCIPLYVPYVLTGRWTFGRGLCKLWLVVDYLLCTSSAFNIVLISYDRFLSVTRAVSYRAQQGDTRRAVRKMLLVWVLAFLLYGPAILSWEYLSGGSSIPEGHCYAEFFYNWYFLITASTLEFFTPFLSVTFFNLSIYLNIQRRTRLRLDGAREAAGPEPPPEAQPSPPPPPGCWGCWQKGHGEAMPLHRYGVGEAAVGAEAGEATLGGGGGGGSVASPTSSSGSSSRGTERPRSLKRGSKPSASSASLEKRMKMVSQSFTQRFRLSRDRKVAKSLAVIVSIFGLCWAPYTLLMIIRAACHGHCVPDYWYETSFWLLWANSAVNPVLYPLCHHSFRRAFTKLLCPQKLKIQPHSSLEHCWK

Row | SMILES | IC50
1 | COC1CCC(C(=O)N2CC(C(=O)N3CCCN(C4CCC4)CC3)C2)CC1 (mixture of isomers) [Example 28, 1-cyclobutyl-4-({1-[(4-methoxycyclohexyl)carbonyl]azetidin-3-yl}carbonyl)-1,4-diazepane] | < 50 nM
2 | O=C(OCc1ccccc1)N1CC(C(=O)N2CCCN(C3CCC3)CC2)C1 [Example 1, benzyl 3-[(4-cyclobutyl-1,4-diazepan-1-yl)carbonyl]azetidine-1-carboxylate] | < 50 nM
3 | O=C(C1CN(C(=O)N2CCCCC2)C1)N1CCCN(C2CCC2)CC1 [Example 2, 1-cyclobutyl-4-{[1-(piperidin-1-ylcarbonyl)azetidin-3-yl]carbonyl}-1,4-diazepane] | < 50 nM
4 | O=C(C1CN(C(=O)N2CCOCC2)C1)N1CCCN(C2CCC2)CC1 [Example 3, 1-cyclobutyl-4-{[1-(morpholin-4-ylcarbonyl)azetidin-3-yl]carbonyl}-1,4-diazepane] | < 50 nM
5 | O=C(C1CN(C(=O)C2CCCCC2)C1)N1CCCN(C2CCC2)CC1 [Example 4, 1-cyclobutyl-4-{[1-(cyclohexylcarbonyl)azetidin-3-yl]carbonyl}-1,4-diazepane] | < 50 nM
6 | O=C(C1CN(C(=O)C2CCOCC2)C1)N1CCCN(C2CCC2)CC1 [Example 5, 1-cyclobutyl-4-{[1-(tetrahydro-2H-pyran-4-ylcarbonyl)azetidin-3-yl]carbonyl}-1,4-diazepane] | < 50 nM
7 | N#Cc1ccc(C(=O)N2CC(C(=O)N3CCCN(C4CCC4)CC3)C2)cc1 [Example 6, 4-({3-[(4-cyclobutyl-1,4-diazepan-1-yl)carbonyl]azetidin-1-yl}carbonyl)benzonitrile] | < 50 nM
8 | COC(=O)c1ccc(C(=O)N2CC(C(=O)N3CCCN(C4CCC4)CC3)C2)cn1 [Example 7, methyl 5-({3-[(4-cyclobutyl-1,4-diazepan-1-yl)carbonyl]azetidin-1-yl}carbonyl)pyridine-2-carboxylate] | < 50 nM
9 | Cc1ncc(C(=O)N2CC(C(=O)N3CCCN(C4CCC4)CC3)C2)cn1 [Example 8, 1-cyclobutyl-4-({1-[(2-methylpyrimidin-5-yl)carbonyl]azetidin-3-yl}carbonyl)-1,4-diazepane] | < 50 nM
10 | Cc1cnc(C(=O)N2CC(C(=O)N3CCCN(C4CCC4)CC3)C2)cn1 [Example 9, 1-cyclobutyl-4-({1-[(5-methylpyrazin-2-yl)carbonyl]azetidin-3-yl}carbonyl)-1,4-diazepane] | < 50 nM
11 | Cc1ccc(C(=O)N2CC(C(=O)N3CCCN(C4CCC4)CC3)C2)cn1 [Example 10, 1-cyclobutyl-4-({1-[(6-methylpyridin-3-yl)carbonyl]azetidin-3-yl}carbonyl)-1,4-diazepane] | < 50 nM
12 | O=C(c1ccc(OC2CCOCC2)cc1)N1CC(C(=O)N2CCCN(C3CCC3)CC2)C1 [Example 11, 1-cyclobutyl-4-[(1-{[4-(tetrahydro-2H-pyran-4-yloxy)phenyl]carbonyl}azetidin-3-yl)carbonyl]-1,4-diazepane] | < 50 nM
13 | O=C(c1ccc(-n2ccnc2)nc1)N1CC(C(=O)N2CCCN(C3CCC3)CC2)C1 [Example 12, 1-cyclobutyl-4-[(1-{[6-(1H-imidazol-1-yl)pyridin-3-yl]carbonyl}azetidin-3-yl)carbonyl]-1,4-diazepane] | < 50 nM
14 | O=C(c1ccc(-n2cncn2)nc1)N1CC(C(=O)N2CCCN(C3CCC3)CC2)C1 [Example 13, 1-cyclobutyl-4-[(1-{[6-(1H-1,2,4-triazol-1-yl)pyridin-3-yl]carbonyl}azetidin-3-yl)carbonyl]-1,4-diazepane] | < 50 nM
15 | O=C(c1ccc(-n2cccn2)nc1)N1CC(C(=O)N2CCCN(C3CCC3)CC2)C1 [Example 14, 1-cyclobutyl-4-[(1-{[6-(1H-pyrazol-1-yl)pyridin-3-yl]carbonyl}azetidin-3-yl)carbonyl]-1,4-diazepane] | < 50 nM
16 | O=C(Cn1cccn1)N1CC(C(=O)N2CCCN(C3CCC3)CC2)C1 [Example 15, 1-cyclobutyl-4-{[1-(1H-pyrazol-1-ylacetyl)azetidin-3-yl]carbonyl}-1,4-diazepane] | < 50 nM
17 | O=C(CN1CCCCC1)N1CC(C(=O)N2CCCN(C3CCC3)CC2)C1 [Example 16, 1-cyclobutyl-4-{[1-(piperidin-1-ylacetyl)azetidin-3-yl]carbonyl}-1,4-diazepane] | < 50 nM
18 | O=C(CN1CCOCC1)N1CC(C(=O)N2CCCN(C3CCC3)CC2)C1 [Example 17, 1-cyclobutyl-4-{[1-(morpholin-4-ylacetyl)azetidin-3-yl]carbonyl}-1,4-diazepane] | < 50 nM
19 | O=C(CN1CCS(=O)(=O)CC1)N1CC(C(=O)N2CCCN(C3CCC3)CC2)C1 [Example 18, 1-cyclobutyl-4-({1-[(1,1-dioxidothiomorpholin-4-yl)acetyl]azetidin-3-yl}carbonyl)-1,4-diazepane] | < 50 nM
20 | O=C(CN1CCC(F)(F)C1)N1CC(C(=O)N2CCCN(C3CCC3)CC2)C1 [Example 19, 1-cyclobutyl-4-({1-[(3,3-difluoropyrrolidin-1-yl)acetyl]azetidin-3-yl}carbonyl)-1,4-diazepane] | < 50 nM

Row | SMILES | IC50
21 | O=C(CN1CCC(F)(F)CC1)N1CC(C(=O)N2CCCN(C3CCC3)CC2)C1 [Example 20, 1-cyclobutyl-4-({1-[(4,4-difluoropiperidin-1-yl)acetyl]azetidin-3-yl}carbonyl)-1,4-diazepane] | < 50 nM
22 | Cc1ccc(OCC(=O)N2CC(C(=O)N3CCCN(C4CCC4)CC3)C2)cn1 [Example 21, 1-cyclobutyl-4-[(1-{[(6-methylpyridin-3-yl)oxy]acetyl}azetidin-3-yl)carbonyl]-1,4-diazepane] | < 50 nM
23 | N#Cc1ccc(OCC(=O)N2CC(C(=O)N3CCCN(C4CCC4)CC3)C2)cc1 [Example 22, 4-(2-{3-[(4-cyclobutyl-1,4-diazepan-1-yl)carbonyl]azetidin-1-yl}-2-oxoethoxy)benzonitrile] | < 50 nM
24 | COc1ccc(S(=O)(=O)N2CC(C(=O)N3CCCN(C4CCC4)CC3)C2)cc1 [Example 23, 1-cyclobutyl-4-({1-[(4-methoxyphenyl)sulfonyl]azetidin-3-yl}carbonyl)-1,4-diazepane] | 50 to 100 nM
25 | O=C(C1CN(S(=O)(=O)C2CCCCC2)C1)N1CCCN(C2CCC2)CC1 [Example 24, 1-cyclobutyl-4-{[1-(cyclohexylsulfonyl)azetidin-3-yl]carbonyl}-1,4-diazepane] | < 50 nM
26 | O=C(C1CN(S(=O)(=O)CC2CCCC2)C1)N1CCCN(C2CCC2)CC1 [Example 25, 1-cyclobutyl-4-({1-[(cyclopentylmethyl)sulfonyl]azetidin-3-yl}carbonyl)-1,4-diazepane] | < 50 nM
27 | O=C(C1CN(S(=O)(=O)c2ccccc2)C1)N1CCCN(C2CCC2)CC1 [Example 26, 1-cyclobutyl-4-{[1-(phenylsulfonyl)azetidin-3-yl]carbonyl}-1,4-diazepane] | < 50 nM
28 | N#Cc1ccc(S(=O)(=O)N2CC(C(=O)N3CCCN(C4CCC4)CC3)C2)cc1 [Example 27, 4-({3-[(4-cyclobutyl-1,4-diazepan-1-yl)carbonyl]azetidin-1-yl}sulfonyl)benzonitrile] | < 50 nM
29 | O=C(C1CN(C(=O)C2CCC(F)(F)CC2)C1)N1CCCN(C2CCC2)CC1 [Example 29, 1-cyclobutyl-4-({1-[(4,4-difluorocyclohexyl)carbonyl]azetidin-3-yl}carbonyl)-1,4-diazepane] | < 50 nM
30 | Cc1cc(C)n(-c2ccc(C(=O)N3CC(C(=O)N4CCCN(C5CCC5)CC4)C3)cc2)n1 [Example 30, 1-cyclobutyl-4-[(1-{[4-(3,5-dimethyl-1H-pyrazol-1-yl)phenyl]carbonyl}azetidin-3-yl)carbonyl]-1,4-diazepane] | < 50 nM
31 | Cc1nnc(-c2ccc(C(=O)N3CC(C(=O)N4CCCN(C5CCC5)CC4)C3)cc2)o1 [Example 31, 1-cyclobutyl-4-[(1-{[4-(5-methyl-1,3,4-oxadiazol-2-yl)phenyl]carbonyl}azetidin-3-yl)carbonyl]-1,4-diazepane] | < 50 nM
32 | O=C(CC1CC1)N1CC(C(=O)N2CCCN(C3CCC3)CC2)C1 [Example 32, 1-cyclobutyl-4-{[1-(cyclopropylacetyl)azetidin-3-yl]carbonyl}-1,4-diazepane] | < 50 nM
33 | O=C(CC1CCCCC1)N1CC(C(=O)N2CCCN(C3CCC3)CC2)C1 [Example 33, 1-cyclobutyl-4-{[1-(cyclohexylacetyl)azetidin-3-yl]carbonyl}-1,4-diazepane] | < 50 nM
34 | N#Cc1ccc(CC(=O)N2CC(C(=O)N3CCCN(C4CCC4)CC3)C2)cc1 [Example 34, 4-(2-{3-[(4-cyclobutyl-1,4-diazepan-1-yl)carbonyl]azetidin-1-yl}-2-oxoethyl)benzonitrile] | < 50 nM
35 | O=C(c1ccc(-c2nccs2)cc1)N1CC(C(=O)N2CCCN(C3CCC3)CC2)C1 [Example 35, 1-cyclobutyl-4-[(1-{[4-(1,3-thiazol-2-yl)phenyl]carbonyl}azetidin-3-yl)carbonyl]-1,4-diazepane] | < 50 nM
36 | Cc1nc(-c2ccc(C(=O)N3CC(C(=O)N4CCCN(C5CCC5)CC4)C3)cc2)cs1 [Example 36, 1-cyclobutyl-4-[(1-{[4-(2-methyl-1,3-thiazol-4-yl)phenyl]carbonyl}azetidin-3-yl)carbonyl]-1,4-diazepane] | < 50 nM
37 | Cc1nc(-c2ccc(C(=O)N3CC(C(=O)N4CCCN(C5CCC5)CC4)C3)cc2)no1 [Example 37, 1-cyclobutyl-4-[(1-{[4-(5-methyl-1,2,4-oxadiazol-3-yl)phenyl]carbonyl}azetidin-3-yl)carbonyl]-1,4-diazepane] | < 50 nM
38 | CC(C)c1ccc(C(=O)N2CC(C(=O)N3CCCN(C4CCC4)CC3)C2)cc1 [Example 38, 1-cyclobutyl-4-[(1-{[4-(1-methylethyl)phenyl]carbonyl}azetidin-3-yl)carbonyl]-1,4-diazepane] | < 50 nM
39 | O=C(c1ccc(Oc2ccccc2)cc1)N1CC(C(=O)N2CCCN(C3CCC3)CC2)C1 [Example 39, 1-cyclobutyl-4-({1-[(4-phenoxyphenyl)carbonyl]azetidin-3-yl}carbonyl)-1,4-diazepane] | < 50 nM
40 | O=C(c1ccc(-n2cccn2)cc1)N1CC(C(=O)N2CCCN(C3CCC3)CC2)C1 [Example 40, 1-cyclobutyl-4-[(1-{[4-(1H-pyrazol-1-yl)phenyl]carbonyl}azetidin-3-yl)carbonyl]-1,4-diazepane] | < 50 nM
